Legend:
cholinesterase [1] = format: biochemical
βAPP [2] = assay: βAPP protein levels in SH-SY5Y cell lysates, western blot; format: cell-based, human; settings: 5 μM, 0.5, 1, 2 and 4 hours
Protocol: (§1) SK-N-SH neuroblastoma cells were cultured on 60 mm dishes at a concentration of 3×10^6 cells, and SH-SY-5Y neuroblastoma and U373 astrocytorna cell lines were plated in 100 mm dishes at a concentration of 3×10^5 cells. The cells were allowed to grow in complete medium ([…], 2 mM glutamine in DMEM) for 3 to 4 days until they reached 70% confluence. To start the experiment, spent medium was removed and replaced with fresh medium (SKNSH—4 ml of DMEM+0.5% FBS; U373—5 ml of DMEM+2.5% FBS) containing 0, 5, or 50 μM phenserine. The cells were incubated at 37° C., 5% CO2 for the specific times indicated. Different media and sera were purchased from Life Technologies (Gaithersberg, Md.).
At each time point, the spent medium was collected and stored at −70° C. for later analysis of secretory βAPP levels. The cells were washed twice with PBS, pH 7.4 and incubated on ice for 15 min for lysis with 100 μL of lysis buffer (20 mM HEPES, 2 mM EGTA, 50 mM (β-glycophosphate, 1 mM sodium orthovanadate, 1% Triton X-100, 10% glycerol) containing appropriate protease inhibitors (2 mM PMSF, 100 μg/mL aprotinin, 25 μM leupeptin and 20 μg/mL soybean trypsin inhibitor). Each lysate was microcentrifuged for 15 min at 14 000 rpm. Protein levels of the supernatant were analyzed by the Bradford protein assay (BioRad, Melville, N.Y.). […]

ERK½ = assay: phosphorylated ERK in SH-SY5Y cells, western blot; format: cell-based, human; settings: 5 μM, 0.5-4 hours
Protocol: Fifteen μg of protein from each sample was mixed with the appropriate volume of 5× Laemmli buffer and boiled for 5 min at 100° C. The samples were loaded onto a 10% NuPAGE Bis-Tris gel in 1×NuPAGE MOPS SDS running buffer (NOVEX, San Diego, Calif.) and the proteins separated at 200 V for 45 min. The gels then were transferred onto nitrocellulose at 25 V for 1.5 h. The blots were blocked with 5% non-fat dry milk in 10 mM Tris, pH 8.0 containing 150 mM NaCl for 1 h and washed twice for 15 min in large volumes of TBST (10 mM Tris, pH 8.0, 150 mM NaCl and 0.05% Tween 20). […] Three final TBST washes of 20 min duration each were performed before the samples were detected by chemiluminescence and exposed to film, as per the manufacturer's instructions (Amersham Life Science Inc., Arlington Heights, Ill.). […] Densitometric quantification of blots was undertaken by using a […] and NIH-IMAGE (version 4.1).
SH-SY5Y cells were incubated with 5 μM (+)-phenserine or (−) phenserine for 0, 0.5, 1, 2 and 4 hours to determine the effect of the drug on βAPP protein levels. Western blots of cell lysates containing 15 μg of total protein per lane were analyzed. […] Stress activated transcription kinases, p38 and JNK, were not detected in the samples. […]

βAPP [3] = assay: βAPP levels in SK-N-SH cells (conditioned media and cell lysates), western blot; format: cell-based, human; settings: 16 hours (FIG. 5)
Protocol: as §1
At each time point, the spent medium was collected and stored at −70° C. for later analysis of secretory βAPP levels. The cells were washed twice with PBS, pH 7.4 and incubated on ice for 15 min for lysis with 100 μL of lysis buffer (20 mM HEPES, 2 mM EGTA, 50 mM (β-glycophosphate, 1 mM sodium orthovanadate, 1% Triton X-100, 10% glycerol) containing appropriate protease inhibitors (2 mM PMSF, 100 μg/mL aprotinin, 25 μM leupeptin and 20 μg/mL soybean trypsin inhibitor). Each lysate was microcentrifuged for 15 min at 14 000 rpm. Protein levels of the supernatant were analyzed by the Bradford protein assay (BioRad, Melville, N.Y.).
Fifteen μg of protein from each sample was mixed with the appropriate volume of 5× Laemmli buffer and boiled for 5 min at 100° C. The samples were loaded onto a 10% NuPAGE Bis-Tris gel in 1×NuPAGE MOPS SDS running buffer (NOVEX, San Diego, Calif.) and the proteins separated at 200 V for 45 min. The gels then were transferred onto nitrocellulose at 25 V for 1.5 h. The blots were blocked with 5% non-fat dry milk in 10 mM Tris, pH 8.0 containing 150 mM NaCl for 1 h and washed twice for 15 min in large volumes of TBST (10 mM Tris, pH 8.0, 150 mM NaCl and 0.05% Tween 20). Each blot was probed for 2 h with either 22C11 anti-βAPP-terminal antibody (Boehringer Mannheim, Indianapolis, Ind.), diluted to a concentration of 2.5 μg/mL or anti-activated ERK antibody (Promega, Madison, Wis.), diluted to a concentration of 25 ng/mL. The blots were washed twice for 15 min in TBST and placed in secondary antibody, anti-mouse IgG- or anti-rabbit IgG conjugated to horse radish peroxidase (Sigma, St. Louis, Mo.), for 30 min. Three final TBST washes of 20 min duration each were performed before the samples were detected by chemiluminescence and exposed to film, as per the manufacturer's instructions (Amersham Life Science Inc., Arlington Heights, Ill.). Additionally, all blots also were stained with Ponceau S (Sigma, St. Louis, Mo.) to determine equivalent loading of samples. Densitometric quantification of blots was undertaken by using a […] and NIH-IMAGE (version 4.1).
Western blots of conditioned media (FIG. 4A) and cell lysates (FIG. 4B) were probed; with a N-terminal directed anti-βAPP antibody.
3×10^6 SK-N-SH cells were plated on 60 mm dishes with DMEM containing 10% FBS. After 36 hours, cells were incubated with low serum medium for 1 hour. Thereafter, the medium was replaced with fresh low serum medium (0.5% FBS). […] The cells were incubated with and without phenserine for 16 hours. At the stated time (4, 8 and 16 hrs), 200 μl of medium was transferred from each dish for assessment of extracellular APP levels. At the end of experiments (16 hrs), the cells were lysed and collected for assessment of intracellular APP levels.
15 μL of medium samples and 15 μg of total protein from each lysed samples were loaded onto 10% trys-glycine gels, and the protein was separated at 150 V for 90 min. The gels were transferred onto polyvinylidene difluoride paper and probed with an affinity-purified anti-APP antibody (22C11), which recognizes the ectodomain of APP (residues 66-81). The APP signals were detected by chemiluminescence and exposed to film. The quantitation of the signals was determined by using a CD camera and NIH-IMAGE (version 4.0). […]

SK-N-SH cells = assay: LDH assay / cell number and viability, SK-N-SH cells; format: cell-based, human; settings: SK-N-SH, 16 hours (FIG. 5)
Source text: Measurement of released lactate dehydrogenase (LDH) in the conditioned medium was undertaken as a marker of cell viability and integrity, as described previously (Lahiri et al., 1997 and 1998).
This was not associated with cellular dysfunction, as determined by measurement of LDH levels versus untreated controls (FIG. 4C).

total Aβ peptide = assay: total Aβ ELISA in SK-N-SH conditioned medium; format: cell-based, human; settings: 16 hours (FIG. 5)
Protocol: Total Aβ peptide levels in SH-SY-SY and SK-N-SH cultured samples were assayed by a sensitive ELISA (Suzuki et al., 1994). For total Aβ measurements in conditioned medium, the rabbit polyclonal antibody #3160 (1-40 residues of Aβ) was used as a capture antibody for all species of Aβ peptide (Aβ1-40 and Aβ1-42) while monoclonal antibody 4G8 (17-25 residues of Aβ) was used to detect Aβ peptide levels, and the values were expressed as the mean of six independent assays.
Likewise, (+)-phenserine reduced BAPP protein levels and total Aβ peptide levels at 16 hours (FIG. 5).

[4] = in vivo toxicity, i.p. administration to rodents; settings: 20 mg/kg
Protocol: This persisted for an hour and is related to central cholinergic overdrive. […] Animals were incapacitated at 20 mg/kg (N=3 per dose group), and 2 were killed when moribund.

cholinesterase [5] = settings: Greig et al., 1995; Brossi et al., 1996; cited from earlier work
βAPP and Aβ = settings: neuronal cells in vitro; Lahiri et al., 1998; cited from earlier work

SMILES	anticholinesterase activity / action (cholinesterase [1])	βAPP levels in the cell lysates (βAPP [2])	ERK½ (phosphorylated) detection (ERK½)	BAPP protein levels (βAPP [3])	toxicity by cell number and viability (LDH levels) (SK-N-SH cells)	total Aβ peptide levels (total Aβ peptide)	clinical signs [4]	anti-cholinesterase activity (cholinesterase [5])	βAPP and Aβ (βAPP and Aβ)
CN1CCC2(C)c3cc(OC(=O)Nc4ccccc4)ccc3N(C)C12 (single isomer, unassigned; (+)) [(+)-phenserine, (+)-Phenserine]	devoid of anticholinesterase activity	slowly decreased at each time point	peaked at the 30 minute to 1 hour period	reduced	not associated with toxicity	reduced	without clinical symptoms and appeared normal	no anti-cholinesterase activity	–
Nc1c2c(nc3ccccc13)CCCC2 [tacrine]	–	–	–	–	–	–	–	–	decrease βAPP and Aβ
